Here are results for one compound from PMC3731256, “Optimization of Substituted 6-Salicyl-4-Anilinoquinazoline Derivatives as Dual EGFR/HER2 Tyrosine Kinase Inhibitors” (PLoS ONE, 2013).

The target in this experiment is T1, PDGFRα (Homo sapiens, UniProt P16234).
T1 construct: The cytoplasmic domain of vascular endothelial growth factor receptor 2 (VEGFR2), platelet-derived growth factor receptor α (PDGFRα); purchased Millipore Corp
Description: Tyrosine kinase profiling (Alphascreen), PDGFRα. The class given is biochemical. Particulars: ATP concentration = Km. On the procedure:
The cytoplasmic domain of vascular endothelial growth factor receptor 2 (VEGFR2), platelet-derived growth factor receptor α (PDGFRα), cSRC were purchased from Millipore Corp. Assays for 3 tyrosine kinases were performed in 384 well plates using the Alphascreen® system (PerkinElmer) at room temperature. Enzyme reactions were performed in 50 mM Tris–HCl, pH7.5, 5 mM MnCl2, 5 mM MgCl2, 0.01% Tween-20, 2 mM dithiothreitol and 0.1 μg/ml biotinylated poly-GluTyr (4:1) containing optimized concentration of enzyme and ATP as described below.
Prior to the kinase reaction, compound and enzyme were incubated for 5 min at room temperature. The reactions were initiated by adding ATP. After the reaction period as described below at room temperature, the reactions were stopped by the addition of 25 μl of 100 mM EDTA, 10 μg/ml Alphascreen streptavidin donor beads and 10 μg/ml acceptor beads described below in 62.5 mM HEPES, pH 7.4, 250 mM NaCl, and 0.1% BSA. Plates were incubated in the dark for more than 12 h and then read by EnVision 2102 Multilabel Reader (PerkinElmer). The well containing substrate and enzyme without compound was used as total reaction control. […]
A general note: Bead proximity is the source of the signal in Alpha formats.

T1 sequence (P16234 550-1089 limits assumed, species assumed): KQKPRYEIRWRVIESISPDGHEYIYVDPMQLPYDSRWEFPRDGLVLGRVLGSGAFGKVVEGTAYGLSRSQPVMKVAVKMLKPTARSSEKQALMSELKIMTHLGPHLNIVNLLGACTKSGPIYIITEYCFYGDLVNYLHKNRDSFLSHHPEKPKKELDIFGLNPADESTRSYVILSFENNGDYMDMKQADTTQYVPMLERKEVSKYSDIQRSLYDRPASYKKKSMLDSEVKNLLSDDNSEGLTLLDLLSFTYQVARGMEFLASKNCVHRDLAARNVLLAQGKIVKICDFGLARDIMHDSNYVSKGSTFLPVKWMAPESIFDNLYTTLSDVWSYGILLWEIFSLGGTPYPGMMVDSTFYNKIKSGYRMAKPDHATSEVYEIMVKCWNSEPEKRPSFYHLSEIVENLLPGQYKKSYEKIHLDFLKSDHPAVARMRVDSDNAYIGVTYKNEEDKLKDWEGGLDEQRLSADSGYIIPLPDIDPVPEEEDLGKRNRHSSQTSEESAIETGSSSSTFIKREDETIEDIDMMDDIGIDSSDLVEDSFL

As to `O=C(Nc1ccc2ncnc(Nc3cccc(Br)c3)c2c1)c1ccc(C(F)(F)F)cc1O` [Compound 21, N-(4-(3-bromophenylamino)quinazolin-6-yl)-2-hydroxy-4-(trifluoromethyl)benzamide], the IC50 (as a rule, the concentration that gives 50% inhibition) turned out to be 17.3 ± 0.06 µM.
